Data as given in patent US20250027086A1, “COMPOSITIONS AND METHODS FOR TREATMENT OF CANCERS USING MODIFIED siRNA-GEM AGENTS” (Sirnaomics, Inc., priority 2022, published 2025).
pIC50: −log10 of the molar value. “Also recorded” adds a separate entry of the source.

Tests used:
MiaPaCa-2 cells = test: Cell viability (CellTiter-Glo) in MiaPaCa-2 pancreatic cancer cells after transfection; type: cell-based, human; details: in combination with lipofectamine; 96 h; n=4 (FIG. 2); read-out: IC50, MiaPaCa-2 cell viability
Procedure: (§1) MIA PaCa-2, […], LS180, HT1376, HT29, H358, H1299, OVCAR-3, HTB-9 and Panc 10.05 cells were obtained from ATCC (Rockville, MD). MiaPaCa cells were cultured in DMEM medium supplemented with 10% FBS. H358, H1299, HTB-9, N87 and Panc 10.05 cells were cultured in DMEM/10% FBS; LS180 and HT1376 in EMEM/10% FBS; HT29 cells in McCoy5A/10% FBS; OVCAR-3 cells were incubated in RPMI/20% FBS. All cells were maintained at 37 degrees C. in an atmosphere containing 5% CO^2.
The day before transfection, cells were seeded in a 384-well plate at an optimal density of between 300 and 800 cells/well. The next day, ten 3-fold serial dilutions of single, modified-backbone siRNAs or PGN6/PGN7 siRNA and Gemcitabine (GEM) mixed with siRNAs: Wee1 #7, KRAS #1, MCL1 #3 or DM2-P47 siRNAs at 1:1 ratio were prepared and combined with diluted Lipofectamine RNAiMAX (Life Technologies, Carlsbad, CA). Within 20 minutes, 10 μl of the transfection mixtures were added to the cells in a 40 μL medium. The final concentrations of siRNAs or Gemcitabine in the wells ranged from 100 nM to 0.002 nM.
Ninety-six hours following the addition of GEM or transfection mixtures, the number of viable cells was determined with CellTiter-Glo®-2.0 reagent (Promega, Madison, WI) by measuring luminescent signal using a Cytation 5 plate reader (BioTek Inc, Winooski, VT). The treatment group (n=4) mean (±SD) was compared to those of non-treated controls and were reported as relative cell viability.

MDA-MB231 cells = test: Cell viability in triple negative breast cancer cell line MDA-MB231; type: cell-based; details: MDA-MB231, 400 cells per well; FIG. 13(a)
Procedure: as §1
(§2) The day before transfection, cells were seeded in a 384-well plate at an optimal density of between 300 and 800 cells/well. […]
(§3) Ninety-six hours following the addition of GEM or transfection mixtures, the number of viable cells was determined with CellTiter-Glo®-2.0 reagent (Promega, Madison, WI) by measuring luminescent signal using a Cytation 5 plate reader (BioTek Inc, Winooski, VT). […]
(§4) Using the same or similar experimental condition as are described above in Example 1, the effects of (i) PGN7 (SEQ. ID No. 9-10) plus a non-signaling oligonucleotide (“NS”), (ii) BCLxL #5 (SEQ. ID No. 14)+NS, and (iii) PGN7 and BCLxL #5 in combination were evaluated and are shown in triple negative breast cancer (MDA-MB231) and ovarian cancer (OVCAR3) cell lines in FIGS. 13 (a)-(b). […]

OVCAR3 cells = test: Cell viability in ovarian cancer cell line OVCAR3; type: cell-based; details: OVCAR3, 800 cells per well; FIG. 13(b)
Procedure: as §1, §2, §3, §4

[1] = test system: MiaPaCa-2 xenograft tumors; test: Xenograft tumor growth in NU/NU mice after subcutaneous implantation of MiaPaCa tumor cells, intratumoral injections; type: in vivo, mouse; details: vs control; for tumor weight: xenografts harvested Day 25, n=8, FIG. 14(a)
Procedure: Twenty-four NU/NU nude mice were purchased from Charles River Laboratories (Frederick, MD) and each housed in a single cage with standard bedding, lighting and ad libitum feed.
The human pancreatic cell carcinoma MiaPaCa-2 cell line was obtained from American Type Culture Collection (ATCC, CRL-1420™) and cultured in DMEM with 10 percent fetal bovine serum and 1 percent pen-strep in a humidified incubator with temperature at 37 degrees C., and 5 percent CO2. Subcultures were made when cell volume reached ˜80-90 percent (roughly 3-5 days). Media was changed every 3 to 4 days. All experiments were performed when the cells reached approximately 80-90 percent confluence.
MiaPaCa tumor cells (2.5×10^6 cells) in 100 μl of growth media and 100 μl of Matrigel were injected subcutaneously into the left flank of each mouse on Day 0. Body weight measured using a digital scale, and tumor volume measured using a digital caliper, were recorded […]. Tumor volume was measured using external digital calipers with modified ellipsoid formula: ½(length×width^2).
The mice were assigned to one of three groups (n=8) approximately five to ten days after subcutaneous implantation of MiaPaCa cells, when tumors had reached 100 mm^3 in volume. Twice weekly (Mon. and Thurs.) for three-four weeks, mice in all three groups received intratumoral injections of 80 μl each. Mice in the control group were injected with non-silencing (NS) siRNA with HKP(+H) as a carrier. Mice in one of the treatment groups were injected with PGN7, i.e., GEM siRNA with HKP(+H)shk1 (2.z), (SEQ. ID No. 9-10). Mice in the second treatment group were injected with STD1, i.e., GEM siRNA with HKP(+H) chk1 (2.z) (SEQ. ID No. 3-4). All injections were given under isoflurane anesthesia to minimize discomfort
Tumor volume (mm^3) and body weights were measured on Days 0, 4, 7, 11, 14, 18, 21 and 25. Mean±SE for each group (PGN7, STD1 and control) were statistically compared using analysis of variance (ANOVA) with the Tukey test. Mice were also observed for excess growth, adverse reactions to treatments and other observable, adverse signs of health. Treatments were blinded to the tracers and data analysts.
All mice were sacrificed and the implanted xenograft removed on Day 26 after initial treatment (the last treatment given on Day 25). One-third of the xenograft was fixed in […] formalin for histological analysis; one-third was frozen and one-third was preserved in RNAlater stabilization and storage solution.

[2] = test system: HT1376, HTB-9, N87 and OVCAR-3 cell lines; test: Cell viability in urinary bladder, gastric and ovarian cancer cell lines; type: cell-based; details: HT1376, HTB-9, N87, OVCAR-3; FIGS. 9-10
Procedure: as §1, §2, §3
Using the same or similar experimental condition as are described above in Example 1, the effects of PGN7 (SEQ. ID No. 9-10), Wee1 (SEQ. ID No. 13), BCLxL #5 (SEQ. ID No. 14) or the PGN7+Wee1, or PGN+BCLxL combinations were evaluated and are shown in HT1376 (400 cells/well) and HTB-9 (800 cells/well) urinary bladder cancer cell lines, N87 (600 cells/well) gastric cancer cell line, and OVCAR-3 (800 cells/well) ovarian cancer line in FIGS. 11 (a)-(d). […]

PGN7: modified siRNA-GEM RNAi agent (SEQ. ID No. 9-10): sense 5′-AAGAAAgAgau[GEM]uGuAu[GEM]AAu-3′; antisense 5′-AuUGAuACAGAuCuCuUuCuU[GEM][GEM]dTdT-3′ (sense AAGAAAGAGATCTGTATCAAT; antisense ATTGATACAGATCTCTTTCTTCCTT; GEM modifications; 2'-modified bases; dTdT overhang; modified_base 1 OTHER; 2'-O-methyl modified nucleotide; modified_base 2 OTHER; modified_base 3 OTHER; modified_base 4 OTHER; modified_base 5 OTHER; modified_base 6 OTHER; modified_base 7 OTHER; 2'-fluoro modified nucleotide; modified_b; 2'-O-me)
pIC50 (MiaPaCa-2 cells): 11.22
pIC50 (MDA-MB231 cells): 8.96
pIC50 (OVCAR3 cells): 9.30
tumor volume ([1]; intratumoral twice weekly with HKP(+H), ANOVA Tukey, p<0.02, from 14 days, FIG. 14(c)): effectively attenuated the increase; also recorded: significantly reduced tumor volume; also recorded: attenuating the growth of pancreatic tumors
body weight ([1]; over 25 days, p>0.05, FIG. 14(b)): did not differ
tumor weight ([1]; p>0.05): did not differ
tumor weight ([1]; p>0.05, listed as PGN 7): did not differ significantly
efficacy on cell viability [2]: significant efficacy
